Source: paper PMC11352409, “Subtype-Specific Ligand Binding and Activation Gating in Homomeric and Heteromeric P2X Receptors” (Biomolecules, 2024)
Several values for one entry are separate records, joined by “and”; a condition that tells them apart may be missing. Identical values can stand only once.

Columns and labels:
Format in all cases: cell-based
[1] = molecular target: T1, human P2X2 receptors (Homo sapiens, UniProt Q9UBL9); assay: Whole-cell patch-clamp concentration-activation, HEK293 cells stably expressing hP2X2; details: for Hill: hP2X2, Hill coefficient of concentration-activation fit; for Effect (Fold in ATP Potency): hP2X2, relative to ATP; for Effect (Fold in ATP Efficacy): hP2X2, relative to current at 100 µM ATP; for EC50: hP2X2, whole-cell, -50 mV, divalent-cation-free bath with 10 mM EGTA, normalised to 100 µM ATP
T1 construct: expressed in transfected cells
T1 sequence (Q9UBL9 1-404 isoform Q9UBL9-2): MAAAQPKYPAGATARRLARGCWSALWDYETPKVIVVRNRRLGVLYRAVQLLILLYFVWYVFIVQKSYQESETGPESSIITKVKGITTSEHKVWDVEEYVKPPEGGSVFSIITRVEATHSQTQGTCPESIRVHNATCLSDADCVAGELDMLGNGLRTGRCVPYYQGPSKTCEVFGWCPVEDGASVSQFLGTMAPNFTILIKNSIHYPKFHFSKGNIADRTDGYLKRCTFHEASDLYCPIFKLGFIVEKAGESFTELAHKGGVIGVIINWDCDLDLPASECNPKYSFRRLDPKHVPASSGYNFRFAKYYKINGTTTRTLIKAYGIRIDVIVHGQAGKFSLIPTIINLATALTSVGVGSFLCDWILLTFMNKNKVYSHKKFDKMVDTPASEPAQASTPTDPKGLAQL
Description: (§1) Human P2X receptors were expressed from HEK293 cell lines containing an inducible promoter system (Flp-In-T-REx 293, Invitrogen, Waltham, MA, USA). The used cell lines were: hP2X2 B (RRID: AC line CVCL_D6U1), hP2X3 (RRID: AC line CVCL_D6U3), and hP2X2/3 (RRID: AC line CVCL_D6U2). The cells were cultured in MEM supplemented with non-essential amino acids (Gibco, Waltham, MA, USA), 10% FCS, and antibiotics, according to the manufacturer’s instructions. For stable cell lines, Flp-In-T-REx 293 cells were transfected using the calcium phosphate method with a mixture of plasmids (0.3 µg pcDNA5/FRT/TO P2X gene and 1.5 µg pOG44) and selected for hygromycin resistance. The cells were seeded on glass coverslips for electrophysiological measurements and used 24–48 h after tetracycline induction ([…]).
(§2) Membrane currents were recorded with a standard patch-clamp technique in the whole-cell configuration. The patch pipettes were pulled from borosilicate glass (ID 1.0 mm, OD 2.0 mm; VITROCOM, Mountain Lakes, NJ, USA) using a micropipette puller (P-97, Sutter Instrument, Novato, CA, USA). The pipettes were filled with intracellular solution containing (mM) 142 NaCl, 5 BAPTA, 5 EGTA, and 10 HEPES at pH 7.4. The pipette resistance was from 2.0 to 6.0 MΩ. The bath solution contained (mM) 142 NaCl, 10 EGTA, 10 HEPES, and 10 glucose at pH 7.4. To increase the speed of recovery from the hP2X3 receptors, we additionally used a bath solution containing (mM) 142 NaCl, 10 HEPES, 10 glucose, 2 CaCl2, and 1 MgCl2. The cells were lifted for recording from the chamber bottom by the patch pipette and positioned in front of the outlet of the application pipette.
(§3) Solutions switches were carried out with the application pipette that had three barrels (inner diameter ~600 µm, Warner Instruments) controlled by a step motor (SF-77B, Warner Instruments). The speed of the laminar solution flow out of the barrels was estimated to be 2–5 cm/s. One barrel contained a control solution and another was connected to a solution selector (Vici Valco Instruments), which allowed us to apply different test solutions by exchanging the solution during the interval (60 sec for P2X2 and P2X2/3 receptors, 180 s for P2X3 receptors) of applying the control solution. Cells expressing hP2X3 were washed with 3 Units/mL apyrase for 30 min to remove ATP. To ensure the comparability of the data points between each application, we rinsed hP2X3 with the following solution for 3 min after each ATP application (mM): 142 NaCl, 10 HEPES, 10 glucose, 2 CaCl2, and 1 MgCl2 at pH 7.4. After sufficient recovery, we switched to the bath solution for 10 s and then to the solution of interest. The speed of the switch around a whole cell was estimated to be below 10 ms by switching between different salt solutions.
(§4) The saturation of activation was determined with ATP at 100 µM. The currents were recorded with a HEKA EPC 10 amplifier in combination with the patchmaster software. The sampling rate was 10 kHz and the recordings were on-line filtered at 2.9 kHz using a four-pole Bessel filter. The currents were recorded at a constant holding potential of −50 mV and the series resistance was compensated with the patchmaster software up to 80%.
(§5) The concentration–activation relationships from whole-cell measurements in the HEK293 cells were obtained from the maximum currents during ATP application. These current amplitudes were normalised with respect to the current at saturating ATP (100 µM) and the resulting data points were fitted I/ImaxATP = Amp/(1 + (EC50/[X])^h) (1) with the Origin 2019® software using a non-linear curve fitting routine. I is the actual current amplitude and ImaxATP is the maximum current amplitude at saturating ATP. The amplitude Amp is the efficacy of the respective ligands. EC50 is the ligand concentration generating the half-maximum current and h is the respective Hill coefficient. [X] is the actual concentration of ATP to be tested. […]

[2] = molecular target: T2, human P2X3 receptors (Homo sapiens, UniProt P56373); assay: Whole-cell patch-clamp concentration-activation, HEK293 cells stably expressing hP2X3; details: for Hill: hP2X3, Hill coefficient of concentration-activation fit; for Effect (Fold in ATP Potency): hP2X3, relative to ATP; for Effect (Fold in ATP Efficacy): hP2X3, relative to current at 100 µM ATP; for EC50: hP2X3, whole-cell, -50 mV, divalent-cation-free bath with 10 mM EGTA, normalised to 100 µM ATP
T2 construct: expressed in transfected cells
T2 sequence (P56373 1-397): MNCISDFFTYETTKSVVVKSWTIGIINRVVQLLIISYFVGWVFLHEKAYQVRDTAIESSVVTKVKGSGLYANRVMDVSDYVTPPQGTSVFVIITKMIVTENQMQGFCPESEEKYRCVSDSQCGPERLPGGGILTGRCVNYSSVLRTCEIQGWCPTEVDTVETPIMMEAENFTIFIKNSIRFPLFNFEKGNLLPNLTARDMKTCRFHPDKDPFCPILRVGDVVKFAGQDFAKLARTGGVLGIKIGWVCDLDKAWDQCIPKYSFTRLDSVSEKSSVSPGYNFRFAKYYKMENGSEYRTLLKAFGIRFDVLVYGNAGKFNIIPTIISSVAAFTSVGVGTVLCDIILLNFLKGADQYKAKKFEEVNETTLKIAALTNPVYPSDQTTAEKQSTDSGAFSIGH
Description: as §1, §2, §3, §4, §5

[3] = molecular target: T3, human P2X2/3 receptors (Homo sapiens, UniProt P56373+Q9UBL9); assay: Whole-cell patch-clamp concentration-activation, HEK293 cells stably expressing hP2X2/3
T3 construct: expressed in transfected cells
T3 sequence (Q9UBL9 1-404 isoform Q9UBL9-2): T1 sequence (Q9UBL9 1-404 isoform Q9UBL9-2)
T3 sequence (P56373 1-397): T2 sequence (P56373 1-397)
Description: as §1, §2, §3, §4, §5

Row | Current response in presence of Mg2+ ([1]; hP2X2, 0.3 µM ATP with 1 mM MgCl2 (27.5 nM ATP4- + 272.5 nM Mg2+ATP)) | Hill [1] | Effect (Fold in ATP Potency) [1] [fold] | Effect (Fold in ATP Efficacy) [1] [fold] | EC50 [1] | Hill [2] | Effect (Fold in ATP Potency) [2] [fold] | Effect (Fold in ATP Efficacy) [2] [fold] | EC50 [2] [µM] | Hill ([3]; hP2X2/3, Hill coefficient of concentration-activation fit) | Effect (Fold in ATP Potency) ([3]; hP2X2/3, relative to ATP) [fold] | Effect (Fold in ATP Efficacy) ([3]; hP2X2/3, relative to current at 100 µM ATP) [fold] | EC50 ([3]; hP2X2/3, whole-cell, -50 mV, divalent-cation-free bath with 10 mM EGTA, normalised to 100 µM ATP) [µM] | Agonist behaviour (current response) ([1]; hP2X2, result in words) | Compound
1 | completely abolished | 1.1 ± 0.1 | 1 | 1 | 0.7 ± 0.1 µM | 1.3 ± 0.2 | 1 | 1 | 1.1 ± 0.1 | 0.9 ± 0.1 | 1 | 1 | 2.7 ± 0.4 | – | Nc1ncnc2c1ncn2[C@@H]1O[C@H](COP(=O)(O)OP(=O)(O)OP(=O)(O)O)[C@@H](O)[C@H]1O [ATP]
2 | – | 1.7 ± 1.5 | 0.1 | 0.1 | ~6.8 µM and 6.8 µM | 1.6 ± 0.7 | 0.1 | 1.9 | 9.6 ± 3.3 | – | – | – | – | only partially | Nc1ncnc2c1ncn2[C@@H]1O[C@H](COP(=O)(O)CP(=O)(O)OP(=O)(O)O)[C@@H](O)[C@H]1O [α,βMe-ATP, αβmethylene-ATP]
